Results as given in patent US5935805A, “Measurement of bilirubin albumin binding” (Research Corporation Technologies, Inc., priority 1997, dated 1999).
Several values for one entry are separate records, joined by “and”; a condition that tells them apart may be missing. Equal entries are not always repeated. Where two headings read alike, the source gives them in different places. Each block holds one molecule with its values, some of them ahead of it.

Key:
albumin [1] = biological target: T1, albumin (Homo sapiens, UniProt P02768); assay: Unbound bilirubin in bilirubin-defatted albumin solution with sulfisoxazole, peroxidase method of the instant invention at 1:1.8 dilution; type: binding; details: 15 mg/dL sulfisoxazole; bilirubin 20 mg/dL, defatted albumin 3.0 g/dL; dilution 1:1.8; mean and SD of 3 replicates
T1 sequence (P02768 25-609): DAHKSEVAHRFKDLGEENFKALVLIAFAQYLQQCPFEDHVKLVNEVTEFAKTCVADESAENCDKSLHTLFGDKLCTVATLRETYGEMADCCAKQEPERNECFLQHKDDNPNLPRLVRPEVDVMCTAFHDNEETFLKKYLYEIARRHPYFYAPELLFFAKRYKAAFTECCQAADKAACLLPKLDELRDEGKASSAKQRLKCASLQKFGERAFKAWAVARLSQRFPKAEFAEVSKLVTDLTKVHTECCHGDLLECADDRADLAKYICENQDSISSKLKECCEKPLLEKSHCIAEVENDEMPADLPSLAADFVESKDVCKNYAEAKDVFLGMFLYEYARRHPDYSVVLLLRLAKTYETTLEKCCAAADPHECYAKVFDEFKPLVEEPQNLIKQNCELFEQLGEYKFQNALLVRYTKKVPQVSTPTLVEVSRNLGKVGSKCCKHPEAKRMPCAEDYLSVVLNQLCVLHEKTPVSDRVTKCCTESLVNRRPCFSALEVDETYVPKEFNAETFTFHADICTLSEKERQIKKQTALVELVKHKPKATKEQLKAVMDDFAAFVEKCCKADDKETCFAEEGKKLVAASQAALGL
Description: (§1) A 0.1 cm path cuvette was employed to allow direct spectral analysis of the unbound bilirubin at the 1:1.8 dilution.

albumin [2] = biological target: T1, albumin; assay: Unbound bilirubin in bilirubin-defatted albumin solution with sulfisoxazole, Jacobsen and Wennberg method at 1:41.8 dilution; type: binding; details: 15 mg/dL sulfisoxazole; bilirubin 20 mg/dL, defatted albumin 3.0 g/dL; dilution 1:41.8; mean and SD of 3 replicates
Procedure: as §1
The Jacobsen and Wennberg method was performed as above using a 1 cm path cuvette. The […] technique was performed by stopping the reaction after five minutes with 1.0 ml of diazo-A and then adding 1.0 ml of 90% methanol.

newborns = details: displaces bilirubin from albumin, blood level 15 mg/dL reported; cited from earlier work
horseradish peroxidase = assay: Standardization of catalyzing reagent: peroxidase catalyzed oxidation of bilirubin by peroxide in the absence of albumin; type: biochemical; details: about 21° C.
Procedure: This is done by determining the Kp, i.e., the first order rate constant for the oxidation of bilirubin by the oxidizing reagent (usually peroxide) in the presence of the catalyzing reagent. The Kp is determined by standard techniques known in the art, utilizing known concentrations of unbound unconjugated bilirubin. […] If B is the unconjugated unoxidized bilirubin concentration at time t, P is the concentration of the catalyzing reagent e.g., peroxidase, Bo, and Bt are the initial unconjugated bilirubin concentration and the unconjugated bilirubin concentration at time t, respectively, and the concentration of the oxidizing reagent e.g., peroxide is not rate limiting, then at concentrations of bilirubin that are well below the Km for peroxidase catalyzed peroxide oxidation of bilirubin, (for HRP, this value is .congruent.70 uMol at 37° C.), then
dB/dt=-Kp ·P·B EQ.3
Integrating Equation 3 between the limits t=o and t=t, wherein t is the predetermined time referred to hereinabove provides [formula] Thus, in accordance with EQ.4, the value of Kp is determined if a known concentration of peroxidase is reacted with an excess amount of peroxide with a known amount of unbound unconjugated bilirubin.

albumin [3] = biological target: T1, albumin; assay: Oxidation of bilirubin-14C/defatted albumin by peroxidase and peroxide, Sephadex G25 column radioactivity; type: biochemical; details: for Bilirubin: 50 μg/mL peroxidase, 1000 μmol/L ethyl hydrogen peroxide; for Eluate counts/min: albumin fraction from Sephadex G25; for Bilirubin (% time 0): 278 µM
Procedure: A bilirubin-^14 C/defatted albumin solution (molar ratio 0.42) containing 278 μmol/L bilirubin and 60,839 counts per minute, 50 μg/mL peroxidase, and 1000 μmol/L ethyl hydrogen peroxide were allowed to react for 8 minutes. At various times (0 to 8 minutes), 100 μl of reaction mix was removed and added to 10 μl of 100 mmol/L Na2 S to stop the reaction. The bilirubin concentration was calculated from the absorption at 460 nm after dilution to 1.0 ml with 0.055M Somensen's buffer, and the entire diluted reaction mixture was then placed on a Sephadex G25 0.5×5 cm (diameter×length) column prepared according to the manufacturer's instructions. The albumin fraction was then eluted with buffer. The bilirubin remaining and the radioactivity of the eluate were measured at each time interval to determine whether the oxidation products remained bound to albumin during the reaction and therefore passed through the Sephadex column with the albumin.

albumin [4] = biological target: T1, albumin; details: lowest established value; cited from earlier work
albumin [5] = biological target: T1, albumin; assay: Bilirubin-albumin binding isotherm in minimally diluted newborn plasma titrated with bilirubin; parameters: Plasma from a partial exchange transfusion performed in a term newborn with polycythemia; from tissue; host or cells: plasma of a term newborn (partial exchange transfusion); details: dilution 1:1.8, two-site model, non-linear regression
Description: Plasma from a partial exchange transfusion performed in a term newborn with polycythemia was titrated with bilirubin and the unconjugated unbound bilirubin determined by the present method to assess the bilirubin-albuminbinding isotherm in minimally diluted plasma. Non-linear regression used to determine the equilibrium binding constants, and a two-site model with interaction between sites best fit the binding isotherm.

Molecule: Cc1noc(NS(=O)(=O)c2ccc(N)cc2)c1C [sulfisoxazole]
CONCENTRATION OF UNBOUND BILIRUBIN + Sulfa (albumin [1]): 0.285 ± 0.03 μm | CONCENTRATION OF UNBOUND BILIRUBIN + Sulfa (albumin [2]): 0.092 ± .003 μm | Bilirubin toxicity when given to newborns (newborns): development of bilirubin toxicity

Molecule: horseradish peroxidase
Kp, first order rate constant for catalyzed oxidation of bilirubin (horseradish peroxidase): about eight

Eluate counts/min (% time 0) (albumin [3]; reaction time 0 min): 100 % time 0 | Bilirubin (albumin [3]; reaction time 0 min): 4.86 µmol/L and 4.93 µmol/L | Eluate counts/min (albumin [3]; reaction time 0 min): 57,675 counts/min and 57,692 counts/min | Eluate counts/min (% time 0) (albumin [3]; reaction time 4 min): 97 % time 0 and 92 % time 0 | Bilirubin (albumin [3]; reaction time 4 min): 3.07 µmol/L and 3.36 µmol/L | Bilirubin (% time 0) (albumin [3]; reaction time 4 min, 4 min): 63 % time 0 and 68 % time 0 | Eluate counts/min (albumin [3]; reaction time 4 min): 55,797 counts/min and 53,070 counts/min | Eluate counts/min (% time 0) (albumin [3]; reaction time 6 min): 87 % time 0 and 82 % time 0 | Bilirubin (albumin [3]; reaction time 6 min): 2.70 µmol/L and 2.60 µmol/L | Bilirubin (% time 0) (albumin [3]; reaction time 6 min, 6 min): 55 % time 0 and 53 % time 0 | Eluate counts/min (albumin [3]; reaction time 6 min): 50,119 counts/min and 47,500 counts/min | Eluate counts/min (% time 0) (albumin [3]; reaction time 8 min): 87 % time 0 and 86 % time 0 | Bilirubin (albumin [3]; reaction time 8 min): 2.14 µmol/L and 2.24 µmol/L | Eluate counts/min (albumin [3]; reaction time 8 min): 50,174 counts/min and 49,405 counts/min | Kd (albumin [5]; read-out: Equilibrium dissociation constant, 1:1 bilirubin/albumin species): 59 nM | Kd (albumin [5]; read-out: Equilibrium dissociation constant, 2:1 bilirubin/albumin species): 30.3 nM
Molecule: C=CC1=C(C)/C(=C/c2[nH]c(Cc3[nH]c(/C=C4\NC(=O)C(C)=C4C=C)c(C)c3CCC(=O)O)c(CCC(=O)O)c2C)NC1=O [bilirubin, bilirubin IXa]
First order dissociation rate constant k-1 of the bilirubin-albumin complex, lowest value (albumin [4]): about 0.4 /min
